{"source": "patent US20170246144A1", "about": "“METHOD OF PREVENTING OR TREATING SPINOCEREBELLAR ATAXIA BY ADMINISTRATING SILIBININ” (National Taiwan Normal University, priority 2016, published 2017)", "key": {"SH-SY5Y cells": {"test_system": "SH-SY5Y cells", "assay": "Western blotting of Bax and Bcl-2 after MSG", "format": "cell-based, Human", "conditions": "15 μM, 100 mM MSG, 6 hours", "description": "The levels of Bax and Bcl-2 in 1×10^6 SH-SY5Y cells were measured by western blotting, wherein the control group (Ctrl) was untreated SH-SY5Y cells or the cells were treated with 100 mM MSG, 100 mM MSG+15 μM SB or 100 mM MSG+10 μM MK801 (MK) for 6 hours. Actin was used as a loading control.\nIn present embodiment, western blotting was performed to study whether silibinin protects SH-SY5Y cell from apoptosis due to glutamatergic excitotoxicity via mitochondria-dependent apoptosis pathway.\nIt is known that the reduction of Bcl-2 level and the increases of Bax level are related to the increases of free calcium ion in cytosol. Bcl-2 is a cell-survival protein and Bax is a pro-apoptotic protein and they both mediate the releases of cytochrome C from mitochondria. Therefore, Bcl-2 and Bax are used as indicators in the present embodiment."}, "SCA17 transgenic mice": {"test_system": "SCA17 transgenic mice", "assay": "Western blotting of TBP/polyQ aggregation and cleaved caspase 3 in cerebellum of SCA17 mice", "format": "in vivo", "conditions": "4.5 mg/kg i.p. once every 2 days, 20 weeks old", "description": "FIGS. 11A and 11B show the effects of SB on the levels of TBP (N12) and cleaved caspase-3 in SCA17 transgenic mice. Mice were grouped into wild type-saline (WT-saline), transgenic-saline (TG-saline), and transgenic-SB treatment (TG-SB) groups. Mice were injected intraperitoneally with saline or SB (4.5 mg/kg) at 8-week old once every 2 days. FIG. 11A: The extent of TBP aggregation (detected with TBP (N12) antibody) and the levels of cleaved caspase-3 in the cerebella of mice were measured by western blotting at 20-week old. Actin was used as a loading control. […] The results were shown as mean±SEM, n=6, *p<0.05, comparing to the TG-saline group.\nSince the SCA17 mice were 8 weeks old, the mice were injected intraperitoneally with silibinin in saline at 4.5 mg/kg once every 2 days, designated as TG_SB group. The mice in TG_saline group were injected with same amount of saline.\nIn order to understand whether silibinin can reduce TBP/polyQ protein aggregation and the expression of cleaved-caspase 3 in the cerebellum of SCA17 mouse, TBP/polyQ protein aggregation and the expression of cleaved-caspase 3 in the cerebellum of SCA17 mouse were measured. […]"}}, "data": [{"smiles": "COc1cc(C2Oc3cc([C@H]4Oc5cc(O)cc(O)c5C(=O)[C@@H]4O)ccc3OC2CO)ccc1O", "note": "(stereo partly shown) [silibinin]", "values": [{"measurement": "increase of Bcl-2 level, compared to MSG only", "setting": "SH-SY5Y cells", "value": "approximately 167%"}, {"measurement": "reduction of Bax level, compared to MSG only", "setting": "SH-SY5Y cells", "value": 80, "unit": "%"}, {"measurement": "inhibition of TBP/polyQ protein aggregation in cerebellum", "setting": "SCA17 transgenic mice", "value": 100, "unit": "%"}, {"measurement": "inhibition of cleaved caspase 3 protein level in cerebellum", "setting": "SCA17 transgenic mice", "value": 25, "unit": "%"}]}]}
